Laboratory results from the supplement of paper PMC11451515.

Test system: NOMO1
Test: cell viability relative to DMSO control; higher = less cytotoxic
Conditions: 48 h
Procedure, shortened: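 Viability is a per-plate percentage relative to DMSO wells, with cell-free wells as background. CellTiter-Glo One luminescence was read after 48 h at 37°C on 1536-well plates (5 μl) of NOMO1 or SEM (500 cells/well) or P12-Ichikawa (1000 cells/well) leukemia cells. The cells had been adapted for at least four passages in each medium and pin-dosed with library compounds in DMSO from 47 μM to 0.79 nM in 11 threefold steps.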

[1] = HPLM + 10% dialyzed FBS, 0.000781 µM
[2] = HPLM + 10% dialyzed FBS, 0.00234 µM
[3] = HPLM + 10% dialyzed FBS, 0.00702 µM
[4] = HPLM + 10% dialyzed FBS, 0.0211 µM
[5] = HPLM + 10% dialyzed FBS, 0.0632 µM
[6] = HPLM + 10% dialyzed FBS, 0.19 µM
[7] = HPLM + 10% dialyzed FBS, 0.569 µM
[8] = HPLM + 10% dialyzed FBS, 1.71 µM
[9] = HPLM + 10% dialyzed FBS, 5.12 µM
[10] = HPLM + 10% dialyzed FBS, 15.4 µM
[11] = HPLM + 10% dialyzed FBS, 46.1 µM
[12] = RPMI 5 mM glucose + 10% FBS, 0.000781 µM
[13] = RPMI 5 mM glucose + 10% FBS, 0.00234 µM
[14] = RPMI 5 mM glucose + 10% FBS, 0.00702 µM
[15] = RPMI 5 mM glucose + 10% FBS, 0.0211 µM
[16] = RPMI 5 mM glucose + 10% FBS, 0.0632 µM
[17] = RPMI 5 mM glucose + 10% FBS, 0.19 µM
[18] = RPMI 5 mM glucose + 10% FBS, 0.569 µM
[19] = RPMI 5 mM glucose + 10% FBS, 1.71 µM
[20] = RPMI 5 mM glucose + 10% FBS, 5.12 µM
[21] = RPMI 5 mM glucose + 10% FBS, 15.4 µM
[22] = RPMI 5 mM glucose + 10% FBS, 46.1 µM
[23] = RPMI 5 mM glucose + 10% dialyzed FBS, 0.000781 µM
[24] = RPMI 5 mM glucose + 10% dialyzed FBS, 0.00234 µM
[25] = RPMI 5 mM glucose + 10% dialyzed FBS, 0.00702 µM
[26] = RPMI 5 mM glucose + 10% dialyzed FBS, 0.0211 µM
[27] = RPMI 5 mM glucose + 10% dialyzed FBS, 0.0632 µM
[28] = RPMI 5 mM glucose + 10% dialyzed FBS, 0.19 µM
[29] = RPMI 5 mM glucose + 10% dialyzed FBS, 0.569 µM
[30] = RPMI 5 mM glucose + 10% dialyzed FBS, 1.71 µM
[31] = RPMI 5 mM glucose + 10% dialyzed FBS, 5.12 µM
[32] = RPMI 5 mM glucose + 10% dialyzed FBS, 15.4 µM
[33] = RPMI 5 mM glucose + 10% dialyzed FBS, 46.1 µM

## CO[C@H]1C[C@@H]2CC[C@@H](C)[C@@](O)(O2)C(=O)C(=O)N2CCCC[C@H]2C(=O)O[C@H]([C@H](C)C[C@@H]2CC[C@@H](OC(=O)C(C)(CO)CO)[C@H](OC)C2)CC(=O)[C@H](C)/C=C(\C)[C@@H](O)[C@@H](OC)C(=O)[C@H](C)C[C@H](C)/C=C/C=C/C=C/1C
[1]
  cell viability: 91.2%
[2]
  cell viability: 113%
[3]
  cell viability: 105%
[4]
  cell viability: 98.5%
[5]
  cell viability: 93.4%
[6]
  cell viability: 102%
[7]
  cell viability: 98.6%
[8]
  cell viability: 92.8%
[9]
  cell viability: 93.9%
[10]
  cell viability: 82.1%
[11]
  cell viability: 64.7%
[12]
  cell viability: 108%
[13]
  cell viability: 108%
[14]
  cell viability: 114%
[15]
  cell viability: 117%
[16]
  cell viability: 98.3%
[17]
  cell viability: 113%
[18]
  cell viability: 110%
[19]
  cell viability: 110%
[20]
  cell viability: 77%
[21]
  cell viability: 74.5%
[22]
  cell viability: 60.3%
[23]
  cell viability: 96.1%
[24]
  cell viability: 115%
[25]
  cell viability: 106%
[26]
  cell viability: 103%
[27]
  cell viability: 108%
[28]
  cell viability: 101%
[29]
  cell viability: 101%
[30]
  cell viability: 108%
[31]
  cell viability: 93.2%
[32]
  cell viability: 71.6%
[33]
  cell viability: 64.5%

## CCC[C@H](N[C@@H](C)C(=O)N1[C@H](C(=O)O)C[C@@H]2CCCC[C@@H]21)C(=O)OCC
[1]
  cell viability: 115%
[2]
  cell viability: 124%
[3]
  cell viability: 119%
[4]
  cell viability: 119%
[5]
  cell viability: 105%
[6]
  cell viability: 102%
[7]
  cell viability: 115%
[8]
  cell viability: 89.4%
[9]
  cell viability: 36%
[10]
  cell viability: 54.1%
[11]
  cell viability: 43.9%
[12]
  cell viability: 97.4%
[13]
  cell viability: 101%
[14]
  cell viability: 115%
[15]
  cell viability: 109%
[16]
  cell viability: 111%
[17]
  cell viability: 106%
[18]
  cell viability: 105%
[19]
  cell viability: 95.3%
[20]
  cell viability: 86.7%
[21]
  cell viability: 78.9%
[22]
  cell viability: 64.6%
[23]
  cell viability: 114%
[24]
  cell viability: 110%
[25]
  cell viability: 118%
[26]
  cell viability: 116%
[27]
  cell viability: 108%
[28]
  cell viability: 109%
[29]
  cell viability: 96.2%
[30]
  cell viability: 87.5%
[31]
  cell viability: 66.4%
[32]
  cell viability: 72.6%
[33]
  cell viability: 48.2%

## CC(=O)C\1=C(/C)C2=CN=C(NC3=CC=C(C=N3)N4CCNCC4)N=C2N(C5CCCC5)C1=O
[12]
  cell viability: 123%
[13]
  cell viability: 118%
[14]
  cell viability: 103%
[15]
  cell viability: 113%
[16]
  cell viability: 136%
[17]
  cell viability: 110%
[18]
  cell viability: 105%
[19]
  cell viability: 96.7%
[20]
  cell viability: 98%
[21]
  cell viability: 87.1%
[22]
  cell viability: 68.8%
[23]
  cell viability: 113%
[24]
  cell viability: 114%
[25]
  cell viability: 111%
[26]
  cell viability: 112%
[27]
  cell viability: 107%
[28]
  cell viability: 112%
[29]
  cell viability: 96.3%
[30]
  cell viability: 79.1%
[31]
  cell viability: 80.9%
[32]
  cell viability: 68.6%
[33]
  cell viability: 60.1%

## CNC1[C@@H](O)C(O[C@@H]2C(O)C(O[C@H]3O[C@H]([C@@H](C)NC)CC[C@H]3N)[C@@H](N)C[C@H]2N)OC[C@]1(C)O (some centres not stated)
[1]
  cell viability: 98.9%
[2]
  cell viability: 102%
[3]
  cell viability: 104%
[4]
  cell viability: 106%
[5]
  cell viability: 108%
[6]
  cell viability: 98.1%
[7]
  cell viability: 106%
[8]
  cell viability: 87.4%
[9]
  cell viability: 85.3%
[10]
  cell viability: 91.4%
[11]
  cell viability: 63.7%
[12]
  cell viability: 93.4%
[13]
  cell viability: 99.6%
[14]
  cell viability: 93.2%
[15]
  cell viability: 97.3%
[16]
  cell viability: 91.3%
[17]
  cell viability: 91.2%
[18]
  cell viability: 91.2%
[19]
  cell viability: 98.9%
[20]
  cell viability: 87.7%
[21]
  cell viability: 92.8%
[22]
  cell viability: 96.7%
[23]
  cell viability: 92.4%
[24]
  cell viability: 84.5%
[25]
  cell viability: 87.1%
[26]
  cell viability: 81.2%
[27]
  cell viability: 88.5%
[28]
  cell viability: 87.7%
[29]
  cell viability: 92.1%
[30]
  cell viability: 90%
[31]
  cell viability: 83.1%
[32]
  cell viability: 89.8%
[33]
  cell viability: 76.5%

## Cc1cccc(-c2nn(C(=S)Nc3ccccc3)cc2-c2ccnc3ccccc23)n1
[12]
  cell viability: 108%
[13]
  cell viability: 118%
[14]
  cell viability: 109%
[15]
  cell viability: 122%
[16]
  cell viability: 111%
[17]
  cell viability: 113%
[18]
  cell viability: 119%
[19]
  cell viability: 108%
[20]
  cell viability: 115%
[21]
  cell viability: 81.6%
[22]
  cell viability: 94.9%
[23]
  cell viability: 115%
[24]
  cell viability: 122%
[25]
  cell viability: 112%
[26]
  cell viability: 119%
[27]
  cell viability: 115%
[28]
  cell viability: 103%
[29]
  cell viability: 111%
[30]
  cell viability: 104%
[31]
  cell viability: 117%
[32]
  cell viability: 112%
[33]
  cell viability: 102%

## CC1(C)CCC(=C(CN2CCN(CC2)C3=CC=C(C=C3)C(=O)N[S+]([O-])(=O)C4=CC(=C(N[C@H](CCN5CCOCC5)CSC6=CC=CC=C6)C=C4)[S+]([O-])(=O)C(F)(F)F)\C1)/C7=CC=C(Cl)C=C7
[1]
  cell viability: 124%
[2]
  cell viability: 132%
[3]
  cell viability: 123%
[4]
  cell viability: 128%
[5]
  cell viability: 116%
[6]
  cell viability: 112%
[7]
  cell viability: 96.7%
[8]
  cell viability: 57.1%
[9]
  cell viability: 49.2%
[10]
  cell viability: 39.2%
[11]
  cell viability: 43.2%
[23]
  cell viability: 116%
[24]
  cell viability: 125%
[25]
  cell viability: 118%
[26]
  cell viability: 117%
[27]
  cell viability: 90.1%
[28]
  cell viability: 78.9%
[29]
  cell viability: 61.7%
[30]
  cell viability: 23.9%
[31]
  cell viability: 24.7%
[32]
  cell viability: 29.9%
[33]
  cell viability: 22.5%

## [NH2][Pt]([NH2])([Cl])[Cl]
[1]
  cell viability: 94.8%
[2]
  cell viability: 110%
[3]
  cell viability: 91.2%
[4]
  cell viability: 103%
[5]
  cell viability: 121%
[6]
  cell viability: 110%
[7]
  cell viability: 93.8%
[8]
  cell viability: 99.4%
[9]
  cell viability: 95.5%
[10]
  cell viability: 90.5%
[11]
  cell viability: 94%
[12]
  cell viability: 83.7%
[13]
  cell viability: 92.2%
[14]
  cell viability: 79.8%
[15]
  cell viability: 99.6%
[16]
  cell viability: 89.7%
[17]
  cell viability: 103%
[18]
  cell viability: 85.9%
[19]
  cell viability: 88.1%
[20]
  cell viability: 84.6%
[21]
  cell viability: 82.4%
[22]
  cell viability: 81.3%
[23]
  cell viability: 90%
[24]
  cell viability: 90.6%
[25]
  cell viability: 88%
[26]
  cell viability: 85.8%
[27]
  cell viability: 97.4%
[28]
  cell viability: 94.7%
[29]
  cell viability: 96.8%
[30]
  cell viability: 96%
[31]
  cell viability: 94.9%
[32]
  cell viability: 89.3%
[33]
  cell viability: 101%

## CC(C)C[C@H](NC(=O)[C@@H](NC(=O)c1cccc(-c2ccccc2)n1)[C@@H](C)O)B(O)O
[12]
  cell viability: 94.7%
[13]
  cell viability: 111%
[14]
  cell viability: 115%
[15]
  cell viability: 128%
[16]
  cell viability: 66.2%
[17]
  cell viability: 23.5%
[18]
  cell viability: 8.87%
[19]
  cell viability: 10.1%
[20]
  cell viability: 7.67%
[21]
  cell viability: 5.17%
[22]
  cell viability: 3.38%
[23]
  cell viability: 104%
[24]
  cell viability: 125%
[25]
  cell viability: 126%
[26]
  cell viability: 131%
[27]
  cell viability: 86.9%
[28]
  cell viability: 39.9%
[29]
  cell viability: 10.7%
[30]
  cell viability: 8.94%
[31]
  cell viability: 8.79%
[32]
  cell viability: 5.46%
[33]
  cell viability: 3.79%

## CCOc1ccc(Nc2nc(-c3c(C)nc4ccccn34)cs2)cc1
[1]
  cell viability: 109%
[2]
  cell viability: 118%
[3]
  cell viability: 119%
[4]
  cell viability: 111%
[5]
  cell viability: 40%
[6]
  cell viability: 35.7%
[7]
  cell viability: 33.4%
[8]
  cell viability: 38.7%
[9]
  cell viability: 38.8%
[10]
  cell viability: 45.7%
[11]
  cell viability: 40.4%
[23]
  cell viability: 119%
[24]
  cell viability: 117%
[25]
  cell viability: 128%
[26]
  cell viability: 120%
[27]
  cell viability: 112%
[28]
  cell viability: 33.2%
[29]
  cell viability: 31.4%
[30]
  cell viability: 30.2%
[31]
  cell viability: 31.4%
[32]
  cell viability: 35.9%
[33]
  cell viability: 32.1%
